Experimental data as given in patent US20050222408A1, “Heterocyclic amides with anti-tuberculosis activity” (priority 2003, published 2005).
Converted amounts (≈) assume the structure as drawn. “Also recorded” adds a separate entry of the source. Read-outs that look alike come from different tables or passages of the source.

How the values were obtained:
[1] = test system: M. tuberculosis H37Ra; assay: MIC against M. tuberculosis H37Ra, micro broth dilution in microtiter plates; conditions: M. tuberculosis H37Ra; for TB MIC: Table 1; for TB MIC / MIC: 7 days at 37° C., MIC90; for MIC: Mycobacterium tuberculosis, H37RA, 168 h, read-out: TB MIC, Table 1
[2] = Maximum Tolerated Dose (MTD), single oral dose in mice; conditions: escalating dose 100, 300 and 500 mg/kg by oral gavage
Method: An assay for Maximum Tolerated Dose (MTD) was also utilized. […] Three different concentrations are tested, generally at 100, 300 and 500 mg/kg. The latter dose is about twice to five times the dose used for efficacy testing of the compound in mice. After 7 days of observation the mice are sacrificed and the organs are studied for any adverse effects. In case of abnormalities the organs are fixed in formalin and given for extensive pathology analysis.
Maximum tolerated dosing was performed on these selected compounds. An escalating dose of drug (100, 300 and 500 mg/kg) was given to mice by oral gavage.

[3] = test system: M. tuberculosis; type: in vivo, mice; conditions: for viable M. tuberculosis, Spleen ± SEM: untreated controls 6.7 ± 0.16; for viable M. tuberculosis, Lungs ± SEM: untreated controls 8.0 ± 0.17
[4] = test system: Vero cells; assay: Cytotoxicity, alamar blue assay against Vero cells; type: cell-based; conditions: for ToxIC50: unit not given; for IC50: Chlorocebus sabaeus, read-out: ToxIC50; for selectivity index (SI): summary b276
[5] = target: UDP-galactose mutase (Glf) (Mycobacterium tuberculosis, UniProt P9WIQ1); assay: Microtitre plate based screen of Glf (enzymatic inhibition); type: biochemical
Chain of UDP-galactose mutase (Glf) (P9WIQ1 whole entry): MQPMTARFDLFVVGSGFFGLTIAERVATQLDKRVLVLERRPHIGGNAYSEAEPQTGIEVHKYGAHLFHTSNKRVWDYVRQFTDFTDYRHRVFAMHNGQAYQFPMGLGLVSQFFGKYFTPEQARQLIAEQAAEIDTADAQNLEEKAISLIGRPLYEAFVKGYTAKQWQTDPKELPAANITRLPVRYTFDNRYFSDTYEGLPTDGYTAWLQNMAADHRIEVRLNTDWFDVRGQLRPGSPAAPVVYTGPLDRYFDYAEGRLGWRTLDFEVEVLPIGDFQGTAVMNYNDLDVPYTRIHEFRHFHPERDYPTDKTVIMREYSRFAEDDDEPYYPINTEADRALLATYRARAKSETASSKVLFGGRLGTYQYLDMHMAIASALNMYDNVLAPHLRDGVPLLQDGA

[6] = Table 1, Vero cells, alamar blue

Structure (SMILES): O=C(Nc1cccc(F)c1)c1ccc([N+](=O)[O-])o1 [Compound 12, 5-Nitro-furan-2-carboxylic acid(3-fluoro-phenyl)-amide]
- TB MIC [1]: 0.8 µg/mL
- Maximum tolerated dosing, effect observed [2]: no effect at the maximum dose
- viable M. tuberculosis, Spleen ± SEM ([3]; 300 mg/kg): 7.0 ± 0.11
- viable M. tuberculosis, Lungs ± SEM ([3]; 300 mg/kg): 8.4 ± 0.24
- ToxIC50 [4, 6]: 9.29

Structure (SMILES): O=C(Nc1cccc(Cl)c1)c1ccc([N+](=O)[O-])o1 [Compound 10, 5-Nitro-furan-2-carboxylic acid(3-chloro-phenyl)-amide]
- Maximum tolerated dosing, effect observed [2]: no effect at the maximum dose
- viable M. tuberculosis, Spleen ± SEM ([3]; 300 mg/kg): 7.3 ± 0.12
- viable M. tuberculosis, Lungs ± SEM ([3]; 300 mg/kg): 8.3 ± 0.21
- ToxIC50 [4, 6]: 6.86
- Glf inhibition [5]: best inhibitors of Glf

Structure (SMILES): COc1ccc(CNC(=O)c2ccc([N+](=O)[O-])o2)cc1OC [Compound 23, 5-Nitro-furan-2-carboxylic acid 3,4-dimethoxy-benzylamide]
- anti-tuberculosis MIC activity [1]: as active as ethambutol and streptomycin
- Maximum tolerated dosing, effect observed [2]: no effect at the maximum dose
- viable M. tuberculosis, Spleen ± SEM ([3]; 300 mg/kg): 6.0 ± 0.19
- viable M. tuberculosis, Lungs ± SEM ([3]; 300 mg/kg): 6.5 ± 0.25
- oral activity against M. tuberculosis in the mouse infection model ([3]; oral): significant oral activity
- IC50 ([4]; Vero): 18.2 µg/mL (≈ 59.3 µM)
- selectivity index (SI) [4]: 90.9

Structure (SMILES): NNC(=O)c1ccncc1 [Isoniazid, reference compound]
- viable M. tuberculosis, Spleen ± SEM ([3]; 25 mg/kg): 3.2 ± 0.21
- viable M. tuberculosis, Lungs ± SEM ([3]; 25 mg/kg): 5.5 ± 0.21

Structure (SMILES): COc1ccc(CCNC(=O)c2ccc([N+](=O)[O-])o2)cc1 [Compound 28, 5-Nitro-furan-2-carboxylic acid [2-(4-methoxy-phenyl)-ethyl]-amide]
- MIC [1]: 0.8 µg/mL (≈ 2.76 µM)
- IC50 ([4]; Vero): 20.4 µg/mL (≈ 70.5 µM)

Structure (SMILES): CC(NC(=O)c1ccc([N+](=O)[O-])o1)c1ccccc1 (stereo not shown) [Compound 30, 5-Nitro-furan-2-carboxylic acid(1-phenyl-ethyl)-amide]
- TB MIC [1]: 3.1 µg/mL
- ToxIC50 [4, 6]: 23.59

Structure (SMILES): COc1cccc(NC(=O)c2ccc([N+](=O)[O-])o2)c1 [Compound 13, 5-Nitro-furan-2-carboxylic acid(3-methoxy-phenyl)-amide]
- TB MIC [1]: 0.8 µg/mL
- Maximum tolerated dosing, effect observed [2]: some pathology at 500 mg/kg
- viable M. tuberculosis, Spleen ± SEM ([3]; 150 mg/kg): 7.2 ± 0.07
- viable M. tuberculosis, Lungs ± SEM ([3]; 150 mg/kg): 8.0 ± 0.3
- ToxIC50 [4, 6]: 18.63
- Glf inhibition [5]: best inhibitors of Glf

Structure (SMILES): O=C(NCc1ccco1)c1ccc([N+](=O)[O-])o1 [Compound 18, 5-Nitro-furan-2-carboxylic acid(furan-2-ylmethyl)-amide]
- TB MIC [1]: 6.25 µg/mL
- ToxIC50 [4, 6]: 4.08

Structure (SMILES): Cc1ncc([N+](=O)[O-])n1CCO [Metronidazole, reference compound]
- viable M. tuberculosis, Spleen ± SEM ([3]; 150 mg/kg): 6.9 ± 0.04
- viable M. tuberculosis, Lungs ± SEM ([3]; 150 mg/kg): 8.5 ± 0.18

Structure (SMILES): O=C(NCc1ccc(N2CCN(Cc3ccccc3)CC2)cc1)c1ccc([N+](=O)[O-])o1 [Compound 66, 5-Nitro-furan-2-carboxylic acid 4-(4-benzyl-piperazin-1-yl)-benzylamide]
- anti-tuberculosis MIC activity [1]: extremely potent; also recorded: more active than isoniazid
- selectivity index (SI) [4]: 1597

Structure (SMILES): COc1cccc(NC(=O)c2ccc(Br)o2)c1 [Compound 33, 5-Bromo-furan-2-carboxylic acid(3-methoxy-phenyl)-amide]
- MIC [1]: 100 µg/mL (≈ 338 µM)
- IC50 ([4]; Table 1, Vero cells, alamar blue, unit inferred): 61.2 µg/mL (≈ 207 µM)
